According to ChEMBL document CHEMBL3885881, “DrugMatrix”:

Organism: Rattus norvegicus
Experiment: DrugMatrix - Regimen: Daily Repeat
Format: toxicity, organism-based, Sprague-Dawley
Design: regimen Daily Repeat, gender Male, age 6-8 weeks
Conditions: in vivo, sc, route subcutaneous, […]; for ABSOLUTE BASOPHIL / ABSOLUTE EOSINOPHIL / ABSOLUTE LYMPHOCYTE / ABSOLUTE MONOCYTE / ABSOLUTE SEGMENTED NEUTROPHIL / BASOPHIL / EOSINOPHIL / ERYTHROCYTE COUNT / HEMATOCRIT / HEMOGLOBIN / LEUKOCYTE COUNT / LYMPHOCYTE / MEAN CORPUSCULAR HEMOGLOBIN / MEAN CORPUSCULAR HEMOGLOBIN CONCENTRATION / MEAN CORPUSCULAR VOLUME / MONOCYTE / NEUTROPHIL / NUCLEATED RED BLOOD CELLS / PLATELET COUNT: tissue Blood; for ALANINE AMINOTRANSFERASE / ALBUMIN / ALKALINE PHOSPHATASE / ASPARTATE AMINOTRANSFERASE / BLOOD UREA NITROGEN / CARBON DIOXIDE / CHLORIDE / CHOLESTEROL / CREATINE PHOSPHOKINASE / CREATININE / GLUCOSE / LACTATE DEHYDROGENASE / LIPASE / PHOSPHORUS / POTASSIUM / SODIUM / TOTAL BILIRUBIN / TOTAL PROTEIN / URIC ACID: tissue Plasma
[1] = 0 mg/kg, 72 h, dose level Control, time 3 day
[2] = 0 mg/kg, 120 h, dose level Control, time 5 day
[3] = 0.8 mg/kg, 72 h, dose level Low, time 3 day

Oc1c(Cl)cc(Cl)c(Cl)c1Cc1c(O)c(Cl)cc(Cl)c1Cl [HEXACHLOROPHENE]
ABSOLUTE BASOPHIL [1]: 0 CELLS/uL
ABSOLUTE EOSINOPHIL [1]: 92.33 CELLS/uL
ABSOLUTE LYMPHOCYTE [1]: 12247.5 CELLS/uL
ABSOLUTE MONOCYTE [1]: 389.67 CELLS/uL
ABSOLUTE SEGMENTED NEUTROPHIL [1]: 1320.5 CELLS/uL
BASOPHIL [1]: 0%
EOSINOPHIL [1]: 0.67%
ERYTHROCYTE COUNT [1]: 5.45 x10E6/uL
HEMATOCRIT [1]: 34.85%
HEMOGLOBIN [1]: 12.97 G/DL
LEUKOCYTE COUNT [1]: 14.05 x10E3/uL
LYMPHOCYTE [1]: 87.33%
MEAN CORPUSCULAR HEMOGLOBIN [1]: 23.78 pg
MEAN CORPUSCULAR HEMOGLOBIN CONCENTRATION [1]: 37.22 G/DL
MEAN CORPUSCULAR VOLUME [1]: 63.93 fL
MONOCYTE [1]: 2.67%
NEUTROPHIL [1]: 9.33%
NUCLEATED RED BLOOD CELLS [1]: 0 /100WBC
PLATELET COUNT [1]: 1174 x10E3/uL
ALANINE AMINOTRANSFERASE [1]: 48.83 u/L
ALBUMIN [1]: 4.23 G/DL
ALKALINE PHOSPHATASE [1]: 351.5 u/L
ASPARTATE AMINOTRANSFERASE [1]: 90 u/L
BLOOD UREA NITROGEN [1]: 15.33 mg/dL
CARBON DIOXIDE [1]: 23 mmol/L
CHLORIDE [1]: 103.5 MEQ/L
CHOLESTEROL [1]: 70.5 mg/dL
CREATINE PHOSPHOKINASE [1]: 651.83 u/L
CREATININE [1]: 0.22 mg/dL
GLUCOSE [1]: 180.67 mg/dL
LACTATE DEHYDROGENASE [1]: 165 u/L
LIPASE [1]: 9.33 u/L
PHOSPHORUS [1]: 12.03 mg/dL
POTASSIUM [1]: 6.17 MEQ/L
SODIUM [1]: 142.62 MEQ/L
TOTAL BILIRUBIN [1]: 0.2 mg/dL
TOTAL PROTEIN [1]: 5.73 G/DL
URIC ACID [1]: 1.77 mg/dL
ABSOLUTE BASOPHIL [2]: 0 CELLS/uL
ABSOLUTE EOSINOPHIL [2]: 0 CELLS/uL
ABSOLUTE LYMPHOCYTE [2]: 12736.67 CELLS/uL
ABSOLUTE MONOCYTE [2]: 253.5 CELLS/uL
ABSOLUTE SEGMENTED NEUTROPHIL [2]: 1193.17 CELLS/uL
BASOPHIL [2]: 0%
EOSINOPHIL [2]: 0%
ERYTHROCYTE COUNT [2]: 5.72 x10E6/uL
HEMATOCRIT [2]: 36.05%
HEMOGLOBIN [2]: 13.62 G/DL
LEUKOCYTE COUNT [2]: 14.18 x10E3/uL
LYMPHOCYTE [2]: 89.33%
MEAN CORPUSCULAR HEMOGLOBIN [2]: 23.83 pg
MEAN CORPUSCULAR HEMOGLOBIN CONCENTRATION [2]: 37.8 G/DL
MEAN CORPUSCULAR VOLUME [2]: 63.05 fL
MONOCYTE [2]: 1.83%
NEUTROPHIL [2]: 8.83%
NUCLEATED RED BLOOD CELLS [2]: 0 /100WBC
PLATELET COUNT [2]: 1322.17 x10E3/uL
ALANINE AMINOTRANSFERASE [2]: 48.83 u/L
ALBUMIN [2]: 4.27 G/DL
ALKALINE PHOSPHATASE [2]: 295.17 u/L
ASPARTATE AMINOTRANSFERASE [2]: 75.83 u/L
BLOOD UREA NITROGEN [2]: 15.5 mg/dL
CARBON DIOXIDE [2]: 30.5 mmol/L
CHLORIDE [2]: 102.33 MEQ/L
CHOLESTEROL [2]: 76.17 mg/dL
CREATINE PHOSPHOKINASE [2]: 205.5 u/L
CREATININE [2]: 0.2 mg/dL
GLUCOSE [2]: 149.67 mg/dL
LACTATE DEHYDROGENASE [2]: 124.5 u/L
LIPASE [2]: 10 u/L
PHOSPHORUS [2]: 10.93 mg/dL
POTASSIUM [2]: 6.59 MEQ/L
SODIUM [2]: 143.1 MEQ/L
TOTAL BILIRUBIN [2]: 0.2 mg/dL
TOTAL PROTEIN [2]: 6.05 G/DL
URIC ACID [2]: 1.45 mg/dL
ABSOLUTE BASOPHIL [3]: 0 CELLS/uL
ABSOLUTE EOSINOPHIL [3]: 0 CELLS/uL
ABSOLUTE LYMPHOCYTE [3]: 12277.33 CELLS/uL
ABSOLUTE MONOCYTE [3]: 275.33 CELLS/uL
ABSOLUTE SEGMENTED NEUTROPHIL [3]: 1214 CELLS/uL
BASOPHIL [3]: 0%
EOSINOPHIL [3]: 0%
ERYTHROCYTE COUNT [3]: 5.64 x10E6/uL
HEMATOCRIT [3]: 34.87%
HEMOGLOBIN [3]: 13.13 G/DL
LEUKOCYTE COUNT [3]: 13.77 x10E3/uL
LYMPHOCYTE [3]: 89.33%
MEAN CORPUSCULAR HEMOGLOBIN [3]: 23.3 pg
MEAN CORPUSCULAR HEMOGLOBIN CONCENTRATION [3]: 37.67 G/DL
MEAN CORPUSCULAR VOLUME [3]: 61.83 fL
MONOCYTE [3]: 2%
NEUTROPHIL [3]: 8.67%
NUCLEATED RED BLOOD CELLS [3]: 0 /100WBC
PLATELET COUNT [3]: 1307.67 x10E3/uL
ALANINE AMINOTRANSFERASE [3]: 41.67 u/L
ALBUMIN [3]: 4.47 G/DL
ALKALINE PHOSPHATASE [3]: 339.67 u/L
ASPARTATE AMINOTRANSFERASE [3]: 84 u/L
BLOOD UREA NITROGEN [3]: 18 mg/dL
CARBON DIOXIDE [3]: 24.67 mmol/L
CHLORIDE [3]: 102.67 MEQ/L
CHOLESTEROL [3]: 79.67 mg/dL
CREATINE PHOSPHOKINASE [3]: 217.33 u/L
CREATININE [3]: 0.21 mg/dL
GLUCOSE [3]: 142.33 mg/dL
LACTATE DEHYDROGENASE [3]: 343.67 u/L
LIPASE [3]: 10 u/L
PHOSPHORUS [3]: 13.23 mg/dL
POTASSIUM [3]: 6.86 MEQ/L
SODIUM [3]: 144.73 MEQ/L
TOTAL BILIRUBIN [3]: 0.23 mg/dL
TOTAL PROTEIN [3]: 6 G/DL
URIC ACID [3]: 2 mg/dL
